Measurements published in patent EP4678638A1, “NEW E3 UBIQUITIN LIGASE LIGAND, PROTEIN DEGRADATION AGENT AND USE THEREOF” (priority 2023, dated 2024).
Where two headings read alike, the source gives them in different places.

Experiments:
[1] = tested on: SR; test: CCK-8 proliferation, SR; assay type: cell-based, Human; settings: Table B10, compounds designed based on the IRAK4 inhibitors, SR cells, read-out: Inhibitory activity (IC50, nM) on tumor cell proliferation, SR
Summary of the method: (§1)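 CCK-8 viability readout; IC50 from growth-inhibition curve fitting. Cells plated, dosed 24h later with a 10-point series, top 10µM, 5-fold steps. Culture at 37°C, 5% CO2.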

[2] = tested on: MM.1S; test: CCK-8 proliferation, MM.1S; assay type: cell-based; settings: Table B10, compounds designed based on the IRAK4 inhibitors, MM.1S cells, read-out: Inhibitory activity (IC50, nM) on tumor cell proliferation, MM.1S
Summary of the method: as §1

[3] = tested on: Jurkat; test: CCK-8 proliferation, Jurkat; assay type: cell-based, Human; settings: Table B10, compounds designed based on the IRAK4 inhibitors, Jurkat cells, read-out: Inhibitory activity (IC50, nM) on tumor cell proliferation, Jurkat
Method: The tumor cells used herein were cultured in a cell culture medium listed in table A1 at 37°C in an incubator with 5% CO2. Prior to experimentation, all cell lines used were correctly identified by STR profiling, and tested negative for mycoplasma contamination using a mycoplasma detection kit through routine screenings. Table A1. Tumor cells and cell culture medium used in the present disclosure
IC50 values of the compounds of the present disclosure (including the compounds in Table 1, and compounds of examples) were measured using the Meilun Cell Counting Kit-8 kit from Dalian Meilun Biotech Co., Ltd. Assay details are as follows: tumor cells were seeded in a 96-well plate at a density listed in Table A2. After 24h, 100 µL of the inoculated cells were treated with 0.5µL of the compounds of the present disclosure (including the compounds in Tables 1 and 2, and compounds of examples) at 10 different successively decreasing concentrations (starting at the highest concentration of 10µM; 5-fold serial dilutions). After the cells were treated with the compounds of the present disclosure for a period of time, the cell viability detection reagent was added to the culture medium for cell viability assessment according to the instructions provided with the CCK-8 kit. […] The growth inhibition of the compounds of the present disclosure on cells was plotted by Prism Graphpad software, and the IC50 values of the compounds of the present disclosure were calculated therefrom. […] Seeding protocol and treatment time for tumor cells

[4] = molecular target: T1, human Cereblon WT GST-tagged protein (Homo sapiens, UniProt Q96SW2); test: CRBN binding, HTRF (CEREBLON BINDING kit); settings: Table II-2, CRBN binding screening, HTRF; for inhibition at 0.5 µM: read-out: Inhibition rate (%) at 0.5µM; for inhibition at 2 µM: read-out: Inhibition rate (%) at 2 µM
T1 construct: purchased CISBIO 64BDCRBNPEH
Summary of the method: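 After 3 h at room temperature, emission at 665 and 620 nm was measured in a homogeneous time-resolved fluorescence format. Compounds competed with a Thalidomide-Re probe for GST-tagged wild-type human CRBN, which was labelled with a Eu anti-GST antibody.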

[5] = molecular target: T2, RSK1 (Homo sapiens, UniProt Q15418); test: Western blot degradation of RSK1 (hPBMC); assay type: cell-based; settings: Table D8
T2 construct: evaluate the effects of the compounds of the present disclosure on the expression of target proteins in cells; endogenous in cells; host or cells: hPBMC
Summary of the method: (§2)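 Degradation is assessed by immunoblotting lysates of treated cells. Target bands are quantified by grayscale and normalised to an internal control, so degradation rate equals 100% minus % remaining.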

[6] = molecular target: T3, RSK2 (Homo sapiens, UniProt P51812); test: Western blot degradation of RSK2 (hPBMC); assay type: cell-based; settings: Table D8
T3 construct: evaluate the effects of the compounds of the present disclosure on the expression of target proteins in cells; endogenous in cells; host or cells: hPBMC
Summary of the method: as §2

T1 sequence (Q96SW2 whole entry): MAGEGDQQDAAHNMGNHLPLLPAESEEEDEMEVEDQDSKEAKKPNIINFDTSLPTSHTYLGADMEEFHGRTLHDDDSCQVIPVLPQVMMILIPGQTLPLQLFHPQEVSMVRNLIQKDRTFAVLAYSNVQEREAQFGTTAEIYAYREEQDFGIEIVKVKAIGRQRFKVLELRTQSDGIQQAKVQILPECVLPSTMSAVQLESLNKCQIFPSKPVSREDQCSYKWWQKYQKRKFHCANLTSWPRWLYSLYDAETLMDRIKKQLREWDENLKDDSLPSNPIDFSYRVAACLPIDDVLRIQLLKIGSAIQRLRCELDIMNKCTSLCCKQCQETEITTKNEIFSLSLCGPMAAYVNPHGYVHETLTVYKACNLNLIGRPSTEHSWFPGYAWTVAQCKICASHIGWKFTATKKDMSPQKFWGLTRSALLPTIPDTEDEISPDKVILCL
T2 sequence (Q15418 whole entry): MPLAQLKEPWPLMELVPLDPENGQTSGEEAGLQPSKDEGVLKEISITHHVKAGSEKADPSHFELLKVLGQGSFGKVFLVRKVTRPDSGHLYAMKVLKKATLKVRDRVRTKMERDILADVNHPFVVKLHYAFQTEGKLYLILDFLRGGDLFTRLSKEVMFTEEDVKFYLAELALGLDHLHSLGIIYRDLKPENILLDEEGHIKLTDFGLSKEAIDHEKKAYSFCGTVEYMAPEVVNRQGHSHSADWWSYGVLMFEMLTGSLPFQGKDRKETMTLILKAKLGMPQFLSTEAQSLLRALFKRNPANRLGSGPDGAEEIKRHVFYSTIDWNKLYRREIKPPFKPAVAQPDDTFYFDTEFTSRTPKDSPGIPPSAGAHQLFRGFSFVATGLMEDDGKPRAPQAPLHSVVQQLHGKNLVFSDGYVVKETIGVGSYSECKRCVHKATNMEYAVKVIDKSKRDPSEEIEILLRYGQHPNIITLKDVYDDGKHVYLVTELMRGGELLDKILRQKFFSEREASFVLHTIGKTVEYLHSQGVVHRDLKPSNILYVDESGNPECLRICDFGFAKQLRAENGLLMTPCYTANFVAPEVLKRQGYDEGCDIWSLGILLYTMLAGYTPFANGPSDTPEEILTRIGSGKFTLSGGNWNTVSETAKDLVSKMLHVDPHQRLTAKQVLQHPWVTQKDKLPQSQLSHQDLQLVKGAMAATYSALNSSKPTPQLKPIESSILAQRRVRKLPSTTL
T3 sequence (P51812 whole entry): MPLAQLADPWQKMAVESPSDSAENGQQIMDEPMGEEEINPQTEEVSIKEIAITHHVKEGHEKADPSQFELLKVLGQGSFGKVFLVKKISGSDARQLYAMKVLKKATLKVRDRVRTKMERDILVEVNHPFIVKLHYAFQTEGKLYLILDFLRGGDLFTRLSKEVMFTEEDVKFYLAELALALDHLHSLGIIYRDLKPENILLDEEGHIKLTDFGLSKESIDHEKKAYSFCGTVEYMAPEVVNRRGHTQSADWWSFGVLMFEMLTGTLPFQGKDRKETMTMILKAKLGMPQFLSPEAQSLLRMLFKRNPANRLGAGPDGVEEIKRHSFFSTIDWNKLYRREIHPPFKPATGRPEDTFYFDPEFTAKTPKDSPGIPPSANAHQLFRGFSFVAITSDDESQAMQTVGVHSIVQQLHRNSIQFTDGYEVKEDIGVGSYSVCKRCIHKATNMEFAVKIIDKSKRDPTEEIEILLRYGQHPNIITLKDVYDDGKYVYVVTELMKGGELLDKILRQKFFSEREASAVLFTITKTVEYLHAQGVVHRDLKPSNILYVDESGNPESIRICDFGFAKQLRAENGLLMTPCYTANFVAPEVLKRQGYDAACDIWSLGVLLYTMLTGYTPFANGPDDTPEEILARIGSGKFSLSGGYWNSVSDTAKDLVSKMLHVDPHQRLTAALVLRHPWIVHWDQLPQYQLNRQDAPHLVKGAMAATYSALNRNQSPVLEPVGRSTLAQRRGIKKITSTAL

IC50 [2] [nM]	IC50 [3] [nM]	inhibition at 0.5 µM [4] [%]	inhibition at 2 µM [4] [%]	IC50 ([2]; Homo sapiens, MM1.S) [nM]	IC50 ([3]; Homo sapiens) [nM]	Compound	IC50 [1] [nM]	Degradation of substrate protein RSK1 (substrate protein remaining %) [5]	Degradation of substrate protein RSK2 (substrate protein remaining %) [6]	IC50 ([1]; Homo sapiens) [nM]
500 to 1000	500 to 1000	–	–	–	–	O=C1CCN(c2ccc(CN3CCC(N4CCN(c5ccc6c(c5)nc(NC(=O)c5cccc(C(F)(F)F)c5)n6[C@H]5CC[C@@H](CO)CC5)CC4)CC3)cn2)C(=O)N1 [GT-05025, N-(5-(4-(1-((6-(2,4-dioxotetrahydropyrimidin-1(2H)-yl)pyridin-3-yl)methyl)piperidin-4-yl)piperazin-1-yl)-1-((1s,4s)-4-(hydroxymethyl)cyclohexyl) -1H-benzo[d]imidazol-2-yl)-3-(trifluoromethyl)benzamide]	500 to 1000	–	–	–
–	–	60 to 80	80 to 100	–	–	C[C@@H]1CNC(=O)c2cc3ccc(C(=O)Nc4cnn(Cc5ccc(N6CCN(Cc7ccc(C8CCC(=O)NC8=O)cc7)CC6)cc5)c4)nc3n21 (stereo partly drawn) [GT-07926, (9R)-N-(1-(4-(4-(4-(2,6-dioxopiperidin-3-yl)benzyl)piperazin-1-yl)benzyl)-1H-pyrazol-4-yl)-9-methyl-6-oxo-6,7,8,9-tetrahydropyrido[3',2':4,5]pyrrolo[1,2-a]pyrazine-2-carboxamide]	–	A (A is defined as 0% ≤ substrate protein remaining % ≤ 80%)	B (B is defined as substrate protein remaining % > 80%)	–
–	–	30 to 40	40 to 53	–	–	C[C@@H]1CNC(=O)c2cc3ccc(C(=O)Nc4cnn(Cc5ccc(NCc6ccnc(N7CCC(=O)NC7=O)c6)cc5)c4)nc3n21 [GT-07795, (R)-N-(1-(4-(((2-(2,4-dioxotetrahydropyrimidin-1(2H)-yl)pyridin-4-yl)methyl)amino)benzyl)-1H-pyrazol-4-yl)-9-methyl-6-oxo-6,7,8,9-tetrahydropyrido[3',2':4,5]pyrrolo[1,2-a]pyrazine-2-carboxamide]	–	A (A is defined as 0% ≤ substrate protein remaining % ≤ 80%)	B (B is defined as substrate protein remaining % > 80%)	–
–	–	–	–	500 to 1000	500 to 1000	O=C1CCC(c2ccc(CN3CCC(N4CCN(c5ccc6c(c5)nc(NC(=O)c5cccc(C(F)(F)F)c5)n6[C@H]5CC[C@@H](CO)CC5)CC4)CC3)cc2)C(=O)N1 (stereo partly drawn) [GT-05020, N-(5-(4-(1-(4-(2,6-dioxopiperidin-3-yl)benzyl)piperidin-4-yl)piperazin-1-yl)-1-((1s,4s)-4-(hydroxymethyl)cyclohexyl) -1H-benzo[d]imidazol-2-yl)-3-(trifluoromethyl)benzamide]	–	–	–	500 to 1000
–	–	20 to 30	60 to 80	–	–	C[C@@H]1CNC(=O)c2cc3ccc(C(=O)Nc4cnn(Cc5ccc(N6CCC(N7CCN(Cc8cncc(C9CCC(=O)NC9=O)c8)CC7)CC6)cc5)c4)nc3n21 (stereo partly drawn) [GT-07961, (9R)-N-(1-(4-(4-(4-((5-(2,6-dioxopiperidin-3-yl)pyridin-3-yl)methyl)piperazin-1-yl)piperidin-1-yl)benzyl)-1H-pyrazol-4-yl)-9-methyl-6-oxo-6,7,8,9-tetrahydropyrido[3',2':4,5]pyrrolo[1,2-a]pyrazine-2-carboxamide]	–	A (A is defined as 0% ≤ substrate protein remaining % ≤ 80%)	A (A is defined as 0% ≤ substrate protein remaining % ≤ 80%)	–
–	–	30 to 40	60 to 80	–	–	C[C@@H]1CNC(=O)c2cc3ccc(C(=O)Nc4cnn(Cc5ccc(N6CCC(N(C)Cc7cc(C8CCC(=O)NC8=O)cnc7F)CC6)cc5)c4)nc3n21 (stereo partly drawn) [GT-07946, (9R)-N-(1-(4-(4-(((5-(2,6-dioxopiperidin-3-yl)-2-fluoropyridin-3-yl)methyl)(methyl)amino)piperidin-1-yl)benzyl)-1H-pyrazol-4-yl)-9-methyl-6-oxo-6,7,8,9-tetrahydropyrido[3',2':4,5]py rrolo[1,2-a]pyrazine-2-carboxamide]	–	A (A is defined as 0% ≤ substrate protein remaining % ≤ 80%)	A (A is defined as 0% ≤ substrate protein remaining % ≤ 80%)	–
–	–	80 to 100	80 to 100	–	–	C[C@@H]1CNC(=O)c2cc3ccc(C(=O)Nc4cnn(Cc5ccc(NCc6cncc(N7CCC(=O)NC7=O)c6)cc5)c4)nc3n21 [GT-07796, (R)-N-(1-(4-(((5-(2,4-dioxotetrahydropyrimidin-1(2H)-yl)pyridin-3-yl)methyl)amino)benzyl)-1H-pyrazol-4-yl)-9-methyl-6-oxo-6,7,8,9-tetrahydropyrido[3',2':4,5]pyrrolo[1,2-a]pyrazine-2-carboxamide]	–	A (A is defined as 0% ≤ substrate protein remaining % ≤ 80%)	B (B is defined as substrate protein remaining % > 80%)	–
–	–	20 to 30	53 to 60	–	–	C[C@@H]1CNC(=O)c2cc3ccc(C(=O)Nc4cnn(Cc5ccc(N6CCC(N7CCN(Cc8cc(N9CCC(=O)NC9=O)cnc8F)CC7)CC6)cc5)c4)nc3n21 [GT-07962, (R)-N-(1-(4-(4-(4-((5-(2,4-dioxotetrahydropyrimidin-1(2H)-yl)-2-fluoropyridin-3-yl)methyl)piperazin-1-yl)piperidin-1-yl)benzyl)-1H-pyrazol-4-yl)-9-methyl-6-oxo-6,7,8,9-tetrahydropyrido[3',2':4,5]pyrrolo[1,2-a]pyrazine-2-carboxamide]	–	A (A is defined as 0% ≤ substrate protein remaining % ≤ 80%)	A (A is defined as 0% ≤ substrate protein remaining % ≤ 80%)	–
–	–	60 to 80	80 to 100	–	–	C[C@@H]1CNC(=O)c2cc3ccc(C(=O)Nc4cnn(Cc5ccc(N6CCC(N7CCN(Cc8ccc(N9CCC(=O)NC9=O)cn8)CC7)CC6)cc5)c4)nc3n21 [GT-07954, (R)-N-(1-(4-(4-(4-((5-(2,4-dioxotetrahydropyrimidin-1(2H)-yl)pyridin-2-yl)methyl)piperazin-1-yl)piperidin-1-yl)benzyl)-1H-pyrazol-4-yl)-9-methyl-6-oxo-6,7,8,9-tetrahydropyrido[3',2':4,5]pyrrolo[1,2-a]pyrazine-2-carboxamide]	–	A (A is defined as 0% ≤ substrate protein remaining % ≤ 80%)	A (A is defined as 0% ≤ substrate protein remaining % ≤ 80%)	–
–	–	30 to 40	53 to 60	–	–	C[C@@H]1CNC(=O)c2cc3ccc(C(=O)Nc4cnn(Cc5ccc(N6CCC(N7CCN(Cc8cc(C9CCC(=O)NC9=O)cnc8F)CC7)CC6)cc5)c4)nc3n21 (stereo partly drawn) [GT-07960, (9R)-N-(1-(4-(4-(4-((5-(2,6-dioxopiperidin-3-yl)-2-fluoropyridin-3-yl)methyl)piperazin-1-yl)piperidin-1-yl)benzyl)-1H-pyrazol-4-yl)-9-methyl-6-oxo-6,7,8,9-tetrahydropyrido[3',2':4,5]pyrrolo[1,2-a]pyrazine-2-carboxamide]	–	A (A is defined as 0% ≤ substrate protein remaining % ≤ 80%)	B (B is defined as substrate protein remaining % > 80%)	–
–	–	20 to 30	53 to 60	–	–	C[C@@H]1CNC(=O)c2cc3ccc(C(=O)Nc4cnn(Cc5ccc(N6CCC(N7CCN(Cc8cccc(N9CCC(=O)NC9=O)c8)CC7)CC6)cc5)c4)nc3n21 [GT-07953, (R)-N-(1-(4-(4-(4-(3-(2,4-dioxotetrahydropyrimidin-1(2H)-yl)benzyl)piperazin-1-yl)piperidin-1-yl)benzyl)-1H-pyrazol-4-yl)-9-methyl-6-oxo-6,7,8,9-tetrahydropyrido[3',2':4,5]pyrrolo[1,2-a]pyrazine-2-carboxamide]	–	A (A is defined as 0% ≤ substrate protein remaining % ≤ 80%)	A (A is defined as 0% ≤ substrate protein remaining % ≤ 80%)	–
